Measurements taken from patent US9434711B2 (Janssen Pharmaceutica, NV, priority 2007, dated 2016).
Where two headings read alike, the source gives them in different places.

Target: canine TRPM8 (Canis lupus familiaris, UniProt Q1A7N1)
Assay: In Vitro Canine TRPM8 Functional Assay (Ca2+ fluorescence, icilin activation)
Type: cell-based
Conditions: for IC50: HEK293 cells stably expressing canine TRPM8, icilin activation, eight-point dose-response, read-out: IC50; for inhibition at 0.2 µM: compound at 0.2 μM, read-out: % Inh @ 0.2
Outline: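 Eight-point dose-response curves, each point averaging quadruplicate wells, gave EC50 or IC50. Canine TRPM8-expressing HEK293 cells, dye-loaded (Calcium 3), were pre-exposed 5 min to compound, then challenged with icilin at roughly EC80; intracellular Ca2+ read by FLIPR or FDSS fluorescence.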

[1] = canine TRPM8, icilin activation
[2] = compound at 0.5 μM, canine TRPM8, icilin activation, read-out: % Inh @ 0.5

Chain of canine TRPM8 (Q1A7N1 1-1104): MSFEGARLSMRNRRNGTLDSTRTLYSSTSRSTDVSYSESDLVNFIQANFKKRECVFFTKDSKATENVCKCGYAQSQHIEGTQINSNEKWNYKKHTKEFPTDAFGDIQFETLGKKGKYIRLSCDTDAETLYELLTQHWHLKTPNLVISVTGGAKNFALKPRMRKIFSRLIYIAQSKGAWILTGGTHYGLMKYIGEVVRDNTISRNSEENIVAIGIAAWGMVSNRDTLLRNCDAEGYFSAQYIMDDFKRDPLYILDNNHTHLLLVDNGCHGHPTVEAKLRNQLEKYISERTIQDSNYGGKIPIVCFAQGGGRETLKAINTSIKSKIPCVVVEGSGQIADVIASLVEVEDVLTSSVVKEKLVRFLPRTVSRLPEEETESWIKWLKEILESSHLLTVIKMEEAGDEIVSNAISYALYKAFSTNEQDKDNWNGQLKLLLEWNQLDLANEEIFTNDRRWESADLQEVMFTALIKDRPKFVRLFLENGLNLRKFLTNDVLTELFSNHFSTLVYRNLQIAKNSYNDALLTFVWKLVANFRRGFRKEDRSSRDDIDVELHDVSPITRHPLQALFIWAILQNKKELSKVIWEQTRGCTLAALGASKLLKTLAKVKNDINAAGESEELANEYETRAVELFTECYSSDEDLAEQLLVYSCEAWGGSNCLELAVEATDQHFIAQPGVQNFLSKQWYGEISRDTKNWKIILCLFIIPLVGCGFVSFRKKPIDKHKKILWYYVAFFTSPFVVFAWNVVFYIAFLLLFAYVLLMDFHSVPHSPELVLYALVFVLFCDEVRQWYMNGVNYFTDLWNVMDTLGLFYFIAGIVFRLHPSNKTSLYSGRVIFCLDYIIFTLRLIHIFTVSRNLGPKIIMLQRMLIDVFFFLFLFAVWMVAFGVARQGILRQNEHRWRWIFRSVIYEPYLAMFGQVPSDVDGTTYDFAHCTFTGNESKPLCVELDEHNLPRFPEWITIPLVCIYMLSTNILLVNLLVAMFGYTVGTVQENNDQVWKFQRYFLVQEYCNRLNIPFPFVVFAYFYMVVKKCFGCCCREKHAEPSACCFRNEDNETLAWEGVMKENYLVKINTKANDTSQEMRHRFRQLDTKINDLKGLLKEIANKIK

Row | SMILES | IC50 [nM] | inhibition at 0.2 µM [1] [%] | inhibition at 0.5 µM [2] [%] | inhibition at 0.5 µM (read-out: % Inh @ 0.5 (μM)) [%]
1 | O=S(=O)(c1ccsc1)N(Cc1ccc(F)c(C(F)(F)F)c1)c1sc2ccccc2c1Br [Compound 186, N-(3-Bromo-benzo[b]thiophen-2-yl)-N-(4-fluoro-3-trifluoromethyl-benzyl)-thien-3-yl-sulfonamide] | 3.7 | 103 |  | 
2 | O=S(=O)(c1ccsc1)N(Cc1ccc(F)c(C(F)(F)F)c1)c1sc2ccccc2c1Cl [Compound 187, N-(3-Chloro-benzo[b]thiophen-2-yl)-N-(4-fluoro-3-trifluoromethyl-benzyl)-thien-3-yl-sulfonamide] | 6 | 100 |  | 
3 | O=S(=O)(c1cccnc1)N(Cc1ccc(F)c(C(F)(F)F)c1)c1sc2ccccc2c1Cl [Compound 189, N-(3-Chloro-benzo[b]thiophen-2-yl)-N-(4-fluoro-3-trifluoromethyl-benzyl)-pyridin-3-yl-sulfonamide] | 11.6 | 100 |  | 
4 | CCS(=O)(=O)N(Cc1ccc(F)c(C(F)(F)F)c1)c1sc2ccccc2c1Cl [Compound 190, N-(3-Chloro-benzo[b]thiophen-2-yl)-N-(4-fluoro-3-trifluoromethyl-benzyl)-ethanesulfonamide] | 15.2 | 101 |  | 
5 | O=S(=O)(c1cccs1)N(Cc1ccc(F)c(C(F)(F)F)c1)c1sc2ccccc2c1Cl [Compound 191, N-(3-Chloro-benzo[b]thiophen-2-yl)-N-(4-fluoro-3-trifluoromethyl-benzyl)-thiophene-2-sulfonamide] |  | 105 |  | 
6 | COC(=O)c1ccc(S(=O)(=O)N(Cc2ccc(F)c(C(F)(F)F)c2)c2sc3ccccc3c2Br)cc1 [Compound 192, N-(3-Bromo-benzo[b]thiophen-2-yl)-N-(4-fluoro-3-trifluoromethyl-benzyl)-4-carbomethoxy-benzenesulfonamide] | 60 | 82 |  | 
7 | COC(=O)c1cccc(S(=O)(=O)N(Cc2ccc(F)c(C(F)(F)F)c2)c2sc3ccccc3c2Br)c1 [Compound 193, N-(3-Bromo-benzo[b]thiophen-2-yl)-N-(4-fluoro-3-trifluoromethyl-benzyl)-3-carbomethoxy-benzenesulfonamide] | 14.5 | 101 |  | 
8 | COC(=O)c1ccc(S(=O)(=O)N(Cc2ccc(F)c(C(F)(F)F)c2)c2sc3ccccc3c2Cl)cc1 [Compound 194, N-(3-Chloro-benzo[b]thiophen-2-yl)-N-(4-fluoro-3-trifluoromethyl-benzyl)-4-carbomethoxy-benzenesulfonamide] |  | 45 |  | 
9 | COC(=O)c1cccc(S(=O)(=O)N(Cc2ccc(F)c(C(F)(F)F)c2)c2sc3ccccc3c2Cl)c1 [Compound 195, N-(3-Chloro-benzo[b]thiophen-2-yl)-N-(4-fluoro-3-trifluoromethyl-benzyl)-3-carbomethoxy-benzenesulfonamide] | 47.3 | 88 |  | 
10 | COC(=O)c1ccccc1S(=O)(=O)N(Cc1ccc(F)c(C(F)(F)F)c1)c1sc2ccccc2c1Cl [Compound 196, N-(3-Chloro-benzo[b]thiophen-2-yl)-N-(4-fluoro-3-trifluoromethyl-benzyl)-2-carbomethoxy-benzenesulfonamide] | 8 | 99 |  | 
11 | COC(=O)c1ccccc1S(=O)(=O)N(Cc1ccc(F)c(C(F)(F)F)c1)c1sc2ccccc2c1Br [Compound 197, N-(3-Bromo-benzo[b]thiophen-2-yl)-N-(4-fluoro-3-trifluoromethyl-benzyl)-2-carbomethoxy-benzenesulfonamide] | 7 | 99 |  | 
12 | CCS(=O)(=O)N(Cc1ccc(F)c(C(F)(F)F)c1)c1sc2ccccc2c1C#N [Compound 198, N-(3-Cyano-benzo[b]thiophen-2-yl)-N-(4-fluoro-3-trifluoromethyl-benzyl)-ethanesulfonamide] | 10 | 95 |  | 
13 | CCS(=O)(=O)N(Cc1ccc(F)c(C(F)(F)F)c1)c1sc2ccccc2c1-c1cncnc1 [Compound 199, N-(4-Fluoro-3-trifluoromethyl-benzyl)-N-(3-pyrimidin-5-yl-benzo[b]thiophen-2-yl)-ethanesulfonamide] | 13 | 91 |  | 
14 | CCS(=O)(=O)N(Cc1ccc(F)c(C(F)(F)F)c1)c1sc2ccccc2c1-c1ccccc1F [Compound 200, N-[3-(2-Fluoro-phenyl)-benzo[b]thiophen-2-yl]-N-(4-fluoro-3-trifluoromethyl-benzyl)-ethanesulfonamide] |  | 29 |  | 
15 | CCS(=O)(=O)N(Cc1ccc(F)c(C(F)(F)F)c1)c1sc2ccccc2c1-c1ccc(F)cc1 [Compound 201, N-[3-(4-Fluoro-phenyl)-benzo[b]thiophen-2-yl]-N-(4-fluoro-3-trifluoromethyl-benzyl)-ethanesulfonamide] |  | 14 |  | 
16 | CCS(=O)(=O)N(Cc1ccc(F)c(C(F)(F)F)c1)c1sc2ccccc2c1-c1ccsc1 [Compound 202, N-(4-Fluoro-3-trifluoromethyl-benzyl)-N-(3-thiophen-3-yl-benzo[b]thiophen-2-yl)-ethanesulfonamide] |  | 32 |  | 
17 | CCS(=O)(=O)N(Cc1ccc(F)c(F)c1)c1sc2ccccc2c1C(C)=O [Compound 203] |  |  |  | 93
18 | CC(=O)c1c(N(Cc2ccc(F)c(F)c2)S(=O)(=O)c2ccccc2)sc2ccccc12 [Compound 204, N-(3-Acetyl-benzo[b]thiophen-2-yl)-N-(3,4-difluoro-benzyl)-benzenesulfonamide] | 6 |  | 96 | 

More lines, main results first:

Row | IC50 [nM] | inhibition at 0.2 µM [1] [%] | inhibition at 0.5 µM [2] [%] | SMILES | inhibition at 0.5 µM (read-out: % Inh @ 0.5 (μM)) [%]
19 | 3 |  | 96 | CCS(=O)(=O)N(Cc1ccc(F)c(C(F)(F)F)c1)c1sc2ccccc2c1C(C)=O [Compound 205, N-(3-Acetyl-benzo[b]thiophen-2-yl)-N-(4-fluoro-3-trifluoromethyl-benzyl)-ethanesulfonamide] | 
20 | 13 | 98 |  | O=Cc1c(N(Cc2ccc(F)c(F)c2)S(=O)(=O)c2ccccc2)sc2ccccc12 [Compound 206, N-(3,4-Difluoro-benzyl)-N-(3-formyl-benzo[b]thiophen-2-yl)-benzenesulfonamide] | 
21 | 16 | 98 |  | O=Cc1c(N(Cc2ccc(F)c(C(F)(F)F)c2)S(=O)(=O)c2ccccc2)sc2ccccc12 [Compound 207, N-(4-Fluoro-3-trifluoromethyl-benzyl)-N-(3-formyl-benzo[b]thiophen-2-yl)-benzenesulfonamide] | 
22 | 12 | 96 |  | CS(=O)(=O)N(Cc1ccc(F)c(C(F)(F)F)c1)c1sc2ccccc2c1C=O [Compound 208, N-(4-Fluoro-3-trifluoromethyl-benzyl)-N-(3-formyl-benzo[b]thiophen-2-yl)-methanesulfonamide] | 
23 | 32 | 98 |  | CS(=O)(=O)N(Cc1ccc(F)c(F)c1)c1sc2ccccc2c1C=O [Compound 209, N-(3,4-Difluoro-benzyl)-N-(3-formyl-benzo[b]thiophen-2-yl)-methanesulfonamide] | 
24 | 8 | 91 |  | CCS(=O)(=O)N(Cc1ccc(F)c(C(F)(F)F)c1)c1sc2ccccc2c1C=O [Compound 210, N-(4-Fluoro-3-trifluoromethyl-benzyl)-N-(3-formyl-benzo[b]thiophen-2-yl)-ethanesulfonamide] | 
25 | 30 | 80 |  | COC(=O)c1ccc(S(=O)(=O)N(Cc2ccc(F)c(C(F)(F)F)c2)c2sc3ccccc3c2C=O)cc1 [Compound 211, N-(3-Formyl-benzo[b]thiophen-2-yl)-N-(4-fluoro-3-trifluoromethyl-benzyl)-4-carbomethoxy-benzenesulfonamide] | 
26 | 11.4 | 101 |  | CCS(=O)(=O)N(Cc1ccc(F)c(F)c1)c1sc2ccccc2c1C=O [Compound 212, N-(3,4-Difluoro-benzyl)-N-(3-formyl-benzo[b]thiophen-2-yl)-ethanesulfonamide] | 
27 | 1.4 | 95 |  | O=S(=O)(c1ccccc1)N(Cc1ccc(F)c(F)c1)c1sc2ccccc2c1CO [Compound 213, N-(3,4-Difluoro-benzyl)-N-(3-hydroxymethyl-benzo[b]thiophen-2-yl)-benzenesulfonamide] | 
28 | 2.1 | 97 |  | O=S(=O)(c1ccccc1)N(Cc1ccc(F)c(C(F)(F)F)c1)c1sc2ccccc2c1CO [Compound 214, N-(4-Fluoro-3-trifluoromethyl-benzyl)-N-(3-hydroxymethyl-benzo[b]thiophen-2-yl)-benzenesulfonamide] | 
29 | 6 | 101 |  | CS(=O)(=O)N(Cc1ccc(F)c(C(F)(F)F)c1)c1sc2ccccc2c1CO [Compound 215, N-(4-Fluoro-3-trifluoromethyl-benzyl)-N-(3-hydroxymethyl-benzo[b]thiophen-2-yl)-methanesulfonamide] | 
30 | 14 | 100 |  | CS(=O)(=O)N(Cc1ccc(F)c(F)c1)c1sc2ccccc2c1CO [Compound 216, N-(3,4-Difluoro-benzyl)-N-(3-hydroxymethyl-benzo[b]thiophen-2-yl)-methanesulfonamide] | 
31 | 3 | 88 |  | CCS(=O)(=O)N(Cc1ccc(F)c(C(F)(F)F)c1)c1sc2ccccc2c1CO [Compound 217, N-(4-Fluoro-3-trifluoromethyl-benzyl)-N-(3-hydroxymethyl-benzo[b]thiophen-2-yl)-ethanesulfonamide] | 
32 | 1 | 90 |  | O=C(O)c1ccc(S(=O)(=O)N(Cc2ccc(F)c(C(F)(F)F)c2)c2sc3ccccc3c2CO)cc1 [Compound 218, N-(3-Hydroxymethyl-benzo[b]thiophen-2-yl)-N-(4-fluoro-3-trifluoromethyl-benzyl)-4-carboxy-benzenesulfonamide] | 
33 | 7.8 | 101 |  | CCS(=O)(=O)N(Cc1ccc(F)c(F)c1)c1sc2ccccc2c1CO [Compound 219, N-(3,4-Difluoro-benzyl)-N-(3-hydroxymethyl-benzo[b]thiophen-2-yl)-ethanesulfonamide] | 
